{
  "source": "patent US20230330221A1",
  "about": "“ADJUVANT BASED ON PEPTIDE NUCLEIC ACID” (priority 2019, published 2023)",
  "key": {"[1]": {"system": "A/Singapore/GP1908/2015 strain", "type": "in vivo, BALB/c mouse", "settings": "transnasal, 10 μg adjuvant per shot; rank among MIP01, adjuvant-free and CPP01 groups (FIG. 4A)"}, "[2]": {"system": "B/Maryland/15/2016 strain", "type": "in vivo, BALB/c mouse", "settings": "transnasal, 10 μg adjuvant per shot; rank among MIP01, adjuvant-free and CPP01 groups (FIG. 4B)"}, "[3]": {"system": "A/Singapore/GP1908/2015 strain", "type": "in vivo, BALB/c mouse", "settings": "subcutaneous, 1 μg adjuvant per shot, after the second administration; rank among MIP01, adjuvant-free and CPP01 groups (FIG. 2)"}, "[4]": {"system": "A/Singapore/GP1908/2015 strain", "type": "in vivo, BALB/c mouse", "settings": "subcutaneous, both first and second administrations"}, "[5]": {"system": "B/Maryland/15/2016 strain", "type": "in vivo", "settings": "transnasal, 10 μg adjuvant + 1 μg HA split antigen per shot, BALB/c mouse, both first and second administrations; versus adjuvant-free group; Mann-Whitney U test, p<0.05 (FIG. 3B)"}, "[6]": {"system": "A/Singapore/GP1908/2015 strain", "type": "in vivo", "settings": "transnasal, 10 μg adjuvant + 1 μg HA split antigen per shot, BALB/c mouse, both first and second administrations; versus adjuvant-free group (FIG. 3A)"}, "[7]": {"system": "B/Maryland/15/2016 strain", "type": "in vivo, BALB/c mouse", "settings": "subcutaneous, both first and second administrations"}},
  "note": "Entries after “also recorded” stand apart in the source; their conditions may differ. Like-named read-outs stand apart in the source and are kept apart here.",
  "data": [
    {"substance": "GRKKRRQRRRPPQ (Human immunodeficiency virus) [CPP01, reference compound]", "values": [
      {"measurement": "antigen-specific IgA titer in the nasal cavity wash against A/Singapore/GP1908/2015 strain", "setting": "[1]", "result": "lowest"},
      {"measurement": "antigen-specific IgA titer in the nasal cavity wash against B/Maryland/15/2016 strain", "setting": "[2]", "result": "lowest"},
      {"measurement": "neutralizing antibody titer against A/Singapore/GP1908/2015 strain", "setting": "[3]", "result": "lowest value"}
    ]},
    {"substance": "GRKKRRQRRRPPQ-G3PNA (C-terminal G3PNA conjugate; Human immunodeficiency virus) [MIP01]", "values": [
      {"measurement": "blood antigen-specific IgG titer against A/Singapore/GP1908/2015 strain", "setting": "[4]; 1 μg adjuvant + 1 μg HA split antigen per shot, BALB/c mouse, versus adjuvant-free group (FIG. 1A)", "result": "higher as compared to that in the adjuvant-free group"},
      {"measurement": "blood antigen-specific IgG titer against A/Singapore/GP1908/2015 strain", "setting": "[4]; 1 μg adjuvant per shot, compared to the CPP01 administration group (FIG. 1A)", "result": "showed a higher blood antigen-specific IgG titer"},
      {"measurement": "blood antigen-specific IgG titer against B/Maryland/15/2016 strain", "setting": "[5]", "result": "higher as compared to that in the adjuvant-free group; also recorded: significant increase in antibody titer with respect to the adjuvant-free group"},
      {"measurement": "blood antigen-specific IgG titer against A/Singapore/GP1908/2015 strain", "setting": "[6]", "result": "higher as compared to that in the adjuvant-free group"},
      {"measurement": "antigen-specific IgA titer in the nasal cavity wash against A/Singapore/GP1908/2015 strain", "setting": "[1]", "result": "highest"},
      {"measurement": "blood antigen-specific IgG titer against B/Maryland/15/2016 strain", "setting": "[7]; 1 μg adjuvant + 1 μg HA split antigen per shot, BALB/c mouse, versus adjuvant-free group (FIG. 1B)", "result": "higher as compared to that in the adjuvant-free group"},
      {"measurement": "blood antigen-specific IgG titer against B/Maryland/15/2016 strain", "setting": "[7]; 1 μg adjuvant per shot, compared to the CPP01 administration group (FIG. 1B)", "result": "showed a higher blood antigen-specific IgG titer"},
      {"measurement": "antigen-specific IgA titer in the nasal cavity wash against B/Maryland/15/2016 strain", "setting": "[2]", "result": "highest"},
      {"measurement": "neutralizing antibody titer against A/Singapore/GP1908/2015 strain", "setting": "[3]", "result": "highest value"}
    ]}
  ]
}
